From patent US4370330A, “Method of enhancing circulation with piperazines” (Merz & Company, priority 1979, dated 1983) come the findings set out here.

Counter-ions that a name gives are not always drawn. Like-named read-outs stand apart in the source and are kept apart here.

For data set [1], the system named is cerebrovascular resistance. Nature of the data set: cerebrovascular resistance on the rabbit (Hutten and Vaupel), decrease in vascular resistance after arterial application. The class given is in vivo. The following applies: for inhibition in vivo at 1 %: Oryctolagus cuniculus, read-out: ΔR % (relative decrease in vascular resistance).
Method: The therapeutic effect is expressed in terms of decrease in vascular resistance.
For this purpose 0.1 ml of a 1% solution of the test substance, i.e., according to the invention, was administered to the rabbit by arterial application. The decrease in vascular resistance (R) and the relative decrease in vascular resistance (ΔR%) were recorded and expressed in mm Hg min/l or in the valid S.I. unit k Pa min/ml, i.e., absolute decrease of resistance x time.
The activity of this compound was tested by means of the aforementioned method.
Data set [2] is described as follows: in vivo. The source says: The calculation of the therapeutic indices was based on the
Data set [3] in a line: acute toxicity after oral application, LD50. The following applies: in vivo. The source says:
The therapeutic range of the substances according to the invention can again be described as excellent, since the LD50 values lie in a favorable range, as is shown by the results of acute toxicity tests on the mouse after oral application.

Data set [4] in a line: in vivo. This is another data set of the same source.
For data set [5] the following is noted: Table 2; mean effective dose.
Where [6] appears, read: Table 1, rabbit, 0.1 ml of a 1% solution, arterial application.
Where [7] appears, read: Table 4, rabbit, 0.1 ml of a 1% solution, arterial application.
The mark [8] stands for this setting: mouse, po, read-out: Acute toxicity LD50, 24 h.
The mark [9] stands for this setting: mouse, po, read-out: Acute toxicity LD50, 14 days.
Where [10] appears, read: Table 3, mouse oral, 24 h, read-out: Acute toxicities LD50, 24 h.
The mark [11] stands for this setting: Table 3, mouse oral, 14 days, read-out: Acute toxicities LD50, 14 days.

Consider `C(=C\c1ccccc1)/CN1CCN(C(c2ccccc2)c2ccccc2)CC1` [Cinnarizine, reference compound], for which, in data set [1] (setting [6]), the inhibition in vivo at 1 % is 19.3% and the “Absolute decrease of vascular resistance R” value is listed as 2,9 mm Hg min/l. Further, in data set [1] (setting [7]), the “Absolute decrease in vascular resistance R” value is recorded as 2.9 mm Hg min/l.
The term LD50 denotes the dose expected to kill half of the subjects tested. Regarding `COc1cc(CN2CCN(c3ccc(C)c(C)c3)CC2)cc(OC)c1OC` [Example 1], in data set [1] (setting [7]), the inhibition in vivo at 1 % was found to be 24.3%. The compound further yielded an LD50 in data set [2] of 260 mg/kg. Moreover, the LD50 at 24 h in data set [3] (setting [8]) was 348 mg/kg. For the same compound, the LD50 at 336 h in data set [3] (setting [9]) came out at 263 mg/kg. For the same compound, in data set [4], the selectivity ratio is 13000.
The corresponding values for `COc1cc(CN2CCN(c3ccc(Cl)c(C(F)(F)F)c3)CC2)cc(OC)c1OC` [Example 2] are 26.3%, 283 mg/kg, 328 mg/kg, 283 mg/kg and 3150.
The corresponding values for `COc1cc(CN2CCN(c3ccc4c(c3)OCO4)CC2)cc(OC)c1OC` [Example 3] are 22%, 297 mg/kg, 312 mg/kg, 296 mg/kg and 2700.
The matching figures for `COc1cc(CN2CCN(c3cc(OC)c(OC)c(OC)c3)CC2)cc(OC)c1OC` [Example 4]: 21.5%, 350 mg/kg, 348 mg/kg, 348 mg/kg and 7000.
Consider `COc1cc(CN2CCN(c3cc(C(F)(F)F)cc(C(F)(F)F)c3)CC2)cc(OC)c1OC` [Example 5], for which the inhibition in vivo at 1 % in data set [1] (setting [7]) turned out to be 20.6%. This compound also yielded a median lethal dose (LD50) in data set [2] of 280 mg/kg. In data set [3] (setting [8]), the LD50 at 24 h came out at 300 mg/kg. Besides, the LD50 at 336 h in data set [3] (setting [9]) was 280 mg/kg. For the same compound, the selectivity ratio in data set [4] came to 5600.
As for `COc1cc(CN2CCN(c3c(C)cccc3C)CC2)cc(OC)c1OC` [Example 6], in data set [1] (setting [7]), the inhibition in vivo at 1 % came out at 23%. The LD50 in data set [2] is 265 mg/kg. For the same compound, the 50% lethal dose (LD50) at 24 h in data set [3] (setting [8]) is 348 mg/kg. Further, in data set [3] (setting [9]), the median lethal dose (LD50) at 336 h amounted to 265 mg/kg. Further, the selectivity ratio in data set [4] was 3800.
`COc1cc(CN2CCN(c3ccccc3)CC2)cc(OC)c1OC.Cl` [Example 21, N-(3,4,5-trimethoxy-benzyl)-N'-phenyl-piperazine hydrochloride]: in data set [1] (Hutten and Vaupel rabbit test), the “Absolute decrease of vascular resistance R” value is 3.0 mm. Hg. min/l, the “circulation stimulant activity (in words)” value is on record as “circulation stimulant” and the “decrease of vascular resistance (ΔR %)” value was found to be 23.2%. The LD50 at 24 h in data set [3] (mouse, oral, 24 hours, read-out: oral acute toxicity (LD50) after 24 hours) worked out at 320 mg/kg. Also, the LD50 at 336 h in data set [3] (mouse, oral, fourteen days, read-out: oral acute toxicity (LD50) after fourteen days) worked out at 265 mg/kg.
For `COc1cccc(N2CCN(Cc3cc(OC)c(OC)c(OC)c3)CC2)c1.Cl` [m. Methoxy-, N-(3,4,5-trimethoxy-benzyl)-N'-(3-methoxyphenyl)-piperazine hydrochloride], in data set [1] (setting [6]), the inhibition in vivo at 1 % was determined as 28.5% and the “Absolute decrease of vascular resistance R” value is listed as 3,0 mm Hg min/l. For the same compound, the LD50 in data set [2] (iv) was 850 mg/kg. Besides, in data set [3] (setting [10]), the median lethal dose (LD50) at 24 h was determined as 411 mg/kg. Further, the LD50 at 336 h in data set [3] (setting [11]) is 285 mg/kg. Moreover, in data set [5], the ED50 was 0,42 mg/kg. Further, the selectivity ratio in data set [4] (iv) amounted to 2010.
With `COc1cc(CN2CCN(c3cccc(C)c3)CC2)cc(OC)c1OC.Cl` [m. Methyl-, N-(3,4,5-trimethoxy-benzyl)-N'-(3-methylphenyl)-piperazine hydrochloride], in data set [1] (setting [6]), the inhibition in vivo at 1 % turned out to be 22% and the “Absolute decrease of vascular resistance R” value was 3,2 mm Hg min/l. For the same compound, the 50% lethal dose (LD50) in data set [2] (iv) is 700 mg/kg. Moreover, the LD50 at 24 h in data set [3] (setting [10]) came out at 452 mg/kg. For the same compound, in data set [3] (setting [11]), the LD50 at 336 h amounted to 310 mg/kg. In addition, the ED50 in data set [5] is 0,46 mg/kg. Further, the selectivity ratio in data set [4] (iv) was 1520.
As to `COc1cc(CN2CCN(c3ccccc3Cl)CC2)cc(OC)c1OC.Cl.Cl` [o. Chloro-, N-(3,4,5-trimethoxy-benzyl)-N'-(2-chlorophenyl)-piperazine dihydrochloride], in data set [1] (setting [6]), the inhibition in vivo at 1 % turned out to be 27.9% and the “Absolute decrease of vascular resistance R” value is recorded as 3,0 mm Hg min/l. The same compound registered a median lethal dose (LD50) in data set [2] (iv) of 810 mg/kg. Further, in data set [3] (setting [10]), the LD50 at 24 h was determined as 295 mg/kg. Also, the LD50 at 336 h in data set [3] (setting [11]) worked out at 255 mg/kg. The ED50 in data set [5] is listed as 0,38 mg/kg. Further, the selectivity ratio in data set [4] (iv) amounted to 2130.
For the compound `CCOc1ccccc1N1CCN(Cc2cc(OC)c(OC)c(OC)c2)CC1.Cl.Cl` [o. Ethoxy-, N-(3,4,5-trimethoxy-benzyl)-N'-(2-ethoxyphenyl)-piperazine dihydrochloride], in data set [1] (setting [6]), the inhibition in vivo at 1 % worked out at 20.4% and the “Absolute decrease of vascular resistance R” value was 2,85 mm Hg min/l. The compound also had an LD50 in data set [2] (iv) of 900 mg/kg. Moreover, the 50% lethal dose (LD50) at 24 h in data set [3] (setting [10]) was 411 mg/kg. For the same compound, the LD50 at 336 h in data set [3] (setting [11]) is 266 mg/kg. Further, the ED50 in data set [5] was 0,45 mg/kg. The selectivity ratio in data set [4] (iv) was 1990.
For `CCc1ccccc1N1CCN(Cc2cc(OC)c(OC)c(OC)c2)CC1.Cl.Cl` [o. Ethyl-, N-(3,4,5-trimethoxy-benzyl)-N'-(2-ethylphenyl)-piperazine dihydrochloride], in data set [1] (setting [6]), the inhibition in vivo at 1 % is 21.7% and the “Absolute decrease of vascular resistance R” value is 3,0 mm Hg min/l. In data set [2] (iv), the LD50 is 900 mg/kg. Moreover, the LD50 at 24 h in data set [3] (setting [10]) amounted to 456 mg/kg. In addition, in data set [3] (setting [11]), the LD50 at 336 h amounted to 311 mg/kg. Further, the ED50 in data set [5] is 0,40 mg/kg. Further, the selectivity ratio in data set [4] (iv) was found to be 2240.
With `COc1cc(CN2CCN(c3ccccc3F)CC2)cc(OC)c1OC.Cl` [o. Fluoro-, N-(3,4,5-trimethoxy-benzyl)-N'-(2-fluorophenyl)-piperazine hydrochloride], in data set [1] (setting [6]), the inhibition in vivo at 1 % stood at 23% and the “Absolute decrease of vascular resistance R” value is 3,0 mm Hg min/l. For the same compound, the LD50 in data set [2] (iv) stood at 920 mg/kg. In addition, the ED50 in data set [5] was 0,40 mg/kg. In addition, in data set [4] (iv), the selectivity ratio is 2280.
The corresponding values for `COc1ccccc1N1CCN(Cc2cc(OC)c(OC)c(OC)c2)CC1.Cl.Cl` [o. Methoxy-, N-(3,4,5-trimethoxy-benzyl)-N'-(2-methoxyphenyl)-piperazine dihydrochloride] are 22.2%, 2,94 mm Hg min/l, 1150 mg/kg, 0,42 mg/kg and 2750.
On to `COc1cc(CN2CCN(c3ccccc3C)CC2)cc(OC)c1OC` [o. Methyl-, N-(3,4,5-trimethoxybenzyl)-N'-(2-methylphenyl)-piperazine], for which, in data set [1] (setting [6]), the inhibition in vivo at 1 % came out at 24.5% and the “Absolute decrease of vascular resistance R” value is 3,3 mm Hg min/l. In data set [2] (iv), this compound returned an LD50 of 700 mg/kg. For the same compound, the LD50 at 24 h in data set [3] (setting [10]) came to 457 mg/kg. The 50% lethal dose (LD50) at 336 h in data set [3] (setting [11]) was determined as 311 mg/kg. In addition, the ED50 in data set [5] is reported as 0,48 mg/kg. In data set [4] (iv), the selectivity ratio came to 1450.
Regarding `COc1cc(CN2CCN(c3ccccc3[N+](=O)[O-])CC2)cc(OC)c1OC.Cl` [o. Nitro-, N-(3,4,5-trimethoxy-benzyl)-N'-(2-nitrophenyl)-piperazine hydrochloride], in data set [1] (setting [6]), the inhibition in vivo at 1 % was 20.6% and the “Absolute decrease of vascular resistance R” value is 3,1 mm Hg min/l. In data set [2] (iv), the LD50 was 650 mg/kg. The LD50 at 24 h in data set [3] (setting [10]) was 274 mg/kg. Besides, in data set [3] (setting [11]), the LD50 at 336 h was found to be 201 mg/kg. Besides, the ED50 in data set [5] is listed as 0,50 mg/kg. Also, the selectivity ratio in data set [4] (iv) turned out to be 1300.
As for `COc1cc(CN2CCN(c3ccc(F)cc3)CC2)cc(OC)c1OC.Cl` [p. Fluoro-, N-(3,4,5-trimethoxy-benzyl)-N'-(4-fluorophenyl)-piperazine hydrochloride], in data set [1] (setting [6]), the inhibition in vivo at 1 % worked out at 26.4% and the “Absolute decrease of vascular resistance R” value was 4,6 mm Hg min/l. The same compound yielded a 50% lethal dose (LD50) in data set [2] (iv) of 580 mg/kg. In addition, the median lethal dose (LD50) at 24 h in data set [3] (setting [10]) came out at 350 mg/kg. The 50% lethal dose (LD50) at 336 h in data set [3] (setting [11]) stood at 275 mg/kg. Moreover, the ED50 in data set [5] is reported as 0,37 mg/kg. Moreover, the selectivity ratio in data set [4] (iv) stood at 1570.
As for `COc1cc(CN2CCN(c3ccc(O)cc3)CC2)cc(OC)c1OC.Cl` [p. Hydroxy-, N-(3,4,5-trimethoxy-benzyl)-N'-(4-hydroxyphenyl)-piperazine hydrochloride], in data set [1] (setting [6]), the inhibition in vivo at 1 % was 19.5% and the “Absolute decrease of vascular resistance R” value was 2,8 mm Hg min/l. The compound also returned an LD50 in data set [2] (iv) of 1260 mg/kg. Moreover, the median lethal dose (LD50) at 24 h in data set [3] (setting [10]) was found to be 306 mg/kg. For the same compound, the median lethal dose (LD50) at 336 h in data set [3] (setting [11]) was 245 mg/kg. Moreover, the ED50 in data set [5] is listed as 0,45 mg/kg. In addition, the selectivity ratio in data set [4] (iv) was determined as 2800.
As for `COc1ccc(N2CCN(Cc3cc(OC)c(OC)c(OC)c3)CC2)cc1.Cl.Cl` [p. Methoxy-, N-(3,4,5-trimethoxy-benzyl)-N'-(4-methoxyphenyl)-piperazine dihydrochloride], in data set [1], the inhibition in vivo at 1 % turned out to be 27.8%. Also, the “Absolute decrease of vascular resistance R” value in data set [1] (setting [6]) is recorded as 3,90 mm Hg min/l. Further, the median lethal dose (LD50) in data set [2] (iv) amounted to 910 mg/kg. Besides, the ED50 in data set [5] was 0,30 mg/kg. In addition, the selectivity ratio in data set [4] (iv) amounted to 3050.
In the case of `COc1cc(CN2CCN(c3ccc(C)cc3)CC2)cc(OC)c1OC` [p. Methyl-, hydrochloride], in data set [1] (setting [6]), the inhibition in vivo at 1 % worked out at 23% and the “Absolute decrease of vascular resistance R” value is reported as 3,3 mm Hg min/l. The compound also gave an LD50 in data set [2] (iv) of 720 mg/kg. In addition, in data set [3] (setting [10]), the LD50 at 24 h was 459 mg/kg. The LD50 at 336 h in data set [3] (setting [11]) worked out at 312 mg/kg. Moreover, the ED50 in data set [5] is reported as 0,44 mg/kg. Moreover, the selectivity ratio in data set [4] (iv) came to 1630.
